Reference: PubChem BioAssay (NCI)
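Following 48 hours of exposure in 96-well plates, responses at five concentrations were used to interpolate endpoints linearly. TGI: total growth inhibition.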

How the values were obtained:
Assay in all cases: NCI tumour cell line growth inhibition, 48 h
[1] = system: HL-60(TB) leukemia
[2] = system: UO-31 renal
[3] = system: EKVX NSCLC
[4] = system: ACHN renal
[5] = system: LOX IMVI melanoma
[6] = system: CCRF-CEM leukemia
[7] = system: NCI-H522 lung
[8] = system: XF 498 CNS
[9] = system: HCC-2998 colon
[10] = system: RPMI-8226 leukemia
[11] = system: SK-MEL-28 melanoma
[12] = system: A549 NSCLC
[13] = system: NCI-H226 lung
[14] = system: MALME-3M melanoma
[15] = system: DLD-1 colon
[16] = system: MOLT-4 leukemia
[17] = system: CAKI-1 renal
[18] = system: OVCAR-8 ovarian
[19] = system: SW-620 colon
[20] = system: M19-MEL melanoma
[21] = system: U251 CNS
[22] = system: SK-MEL-5 melanoma
[23] = system: OVCAR-5 ovarian
[24] = system: NCI-H460 lung
[25] = system: LXFL 529 NSCLC
[26] = system: SNB-78 CNS
[27] = system: DMS 273 small cell lung
[28] = system: RXF-631 renal
[29] = system: TK-10 renal
[30] = system: HT29 colon
[31] = system: UACC-62 melanoma
[32] = system: SF-268 CNS
[33] = system: M14 melanoma
[34] = system: 786-0 renal
[35] = system: KM20L2 colon
[36] = system: HOP-92 NSCLC
[37] = system: SK-OV-3 ovarian
[38] = system: SNB-19 CNS
[39] = system: SF-295 CNS
[40] = system: UACC-257 melanoma
[41] = system: IGROV1 ovarian
[42] = system: OVCAR-4 ovarian
[43] = system: HOP-62 NSCLC
[44] = system: KM12 colon
[45] = system: K-562 leukemia
[46] = system: NCI-H23 lung
[47] = system: OVCAR-3 ovarian
[48] = system: SNB-75 CNS
[49] = system: SK-MEL-2 melanoma
[50] = system: A498 renal
[51] = system: SF-539 CNS
[52] = system: COLO 205 colon
[53] = system: HCT-15 colon
[54] = system: DMS 114 small cell lung
[55] = system: SN12C renal
[56] = system: SR leukemia
[57] = system: HCT-116 colon
[58] = system: HOP-18 NSCLC
[59] = system: RXF 393 renal

COc1cc2c(cc1OC)C(C(CO)CO)N(CC(O)CCl)CC2 (stereo not given)
TGI [1]: > 100 µM
TGI [2]: > 100 µM
TGI [3]: > 100 µM
TGI [4]: > 100 µM
TGI [5]: > 100 µM
TGI [6]: > 100 µM
TGI [7]: > 100 µM
TGI [8]: > 100 µM
TGI [9]: > 100 µM
TGI [10]: > 100 µM
TGI [11]: > 100 µM
TGI [12]: > 100 µM
TGI [13]: > 100 µM
TGI [14]: > 100 µM
TGI [15]: > 100 µM
TGI [16]: > 100 µM
TGI [17]: > 100 µM
TGI [18]: > 100 µM
TGI [19]: > 100 µM
TGI [20]: > 100 µM
TGI [21]: > 100 µM
TGI [22]: > 100 µM
TGI [23]: > 100 µM
TGI [24]: > 100 µM
TGI [25]: > 100 µM
TGI [26]: > 100 µM
TGI [27]: > 100 µM
TGI [28]: > 100 µM
TGI [29]: > 100 µM
TGI [30]: > 100 µM
TGI [31]: > 100 µM
TGI [32]: > 100 µM
TGI [33]: > 100 µM
TGI [34]: > 100 µM
TGI [35]: > 100 µM
TGI [36]: > 100 µM
TGI [37]: > 100 µM
TGI [38]: > 100 µM
TGI [39]: > 100 µM
TGI [40]: > 100 µM
TGI [41]: > 100 µM
TGI [42]: > 100 µM
TGI [43]: > 100 µM
TGI [44]: > 100 µM
TGI [45]: > 100 µM
TGI [46]: > 100 µM
TGI [47]: > 100 µM
TGI [48]: > 100 µM
TGI [49]: > 100 µM
TGI [50]: > 100 µM
TGI [51]: > 100 µM
TGI [52]: > 100 µM
TGI [53]: > 100 µM

CN1CCCC2(CCCc3ccccc32)C1 (stereo not given)
TGI [1]: > 100 µM
TGI [2]: > 100 µM
TGI [3]: > 100 µM
TGI [54]: > 100 µM
TGI [4]: > 100 µM
TGI [5]: > 100 µM
TGI [6]: > 100 µM
TGI [7]: > 100 µM
TGI [9]: > 100 µM
TGI [10]: > 100 µM
TGI [11]: > 100 µM
TGI [12]: > 100 µM
TGI [13]: > 100 µM
TGI [14]: > 100 µM
TGI [15]: > 100 µM
TGI [16]: > 100 µM
TGI [17]: > 100 µM
TGI [55]: > 100 µM
TGI [18]: > 100 µM
TGI [19]: > 100 µM
TGI [20]: > 100 µM
TGI [21]: > 100 µM
TGI [22]: > 100 µM
TGI [23]: > 100 µM
TGI [24]: > 100 µM
TGI [25]: > 100 µM
TGI [26]: > 100 µM
TGI [27]: > 100 µM
TGI [28]: > 100 µM
TGI [29]: > 100 µM
TGI [30]: > 100 µM
TGI [31]: > 100 µM
TGI [32]: > 100 µM
TGI [33]: > 100 µM
TGI [34]: > 100 µM
TGI [35]: > 100 µM
TGI [36]: > 100 µM
TGI [37]: > 100 µM
TGI [39]: > 100 µM
TGI [40]: > 100 µM
TGI [41]: > 100 µM
TGI [42]: > 100 µM
TGI [43]: > 100 µM
TGI [44]: > 100 µM
TGI [45]: > 100 µM
TGI [56]: > 100 µM
TGI [46]: > 100 µM
TGI [47]: > 100 µM
TGI [48]: > 100 µM
TGI [49]: > 100 µM
TGI [50]: > 100 µM
TGI [51]: > 100 µM
TGI [52]: > 100 µM
TGI [57]: > 100 µM
TGI [53]: > 100 µM

COc1ccc2c(CN3CCCCC3CO)cc3cc(OC)c(OC)cc3c2c1 (stereo not given)
TGI [1]: 12.5 µM
TGI [2]: 12.5 µM
TGI [3]: 19.7 µM
TGI [54]: 15.8 µM
TGI [4]: 31.1 µM
TGI [5]: 13.7 µM
TGI [6]: 18.8 µM
TGI [7]: 7.72 µM
TGI [8]: 18.9 µM
TGI [9]: 21 µM
TGI [10]: 33 µM
TGI [11]: 18.6 µM
TGI [12]: 14.2 µM
TGI [13]: 16.7 µM
TGI [14]: 16.9 µM
TGI [15]: > 100 µM
TGI [16]: 14.9 µM
TGI [55]: 26.2 µM
TGI [18]: 19.9 µM
TGI [19]: 15.7 µM
TGI [20]: 11.4 µM
TGI [21]: 18.3 µM
TGI [22]: 20.6 µM
TGI [23]: 12 µM
TGI [25]: 16.8 µM
TGI [26]: 23.1 µM
TGI [27]: 11.7 µM
TGI [29]: 27.5 µM
TGI [30]: 11.4 µM
TGI [31]: 25.7 µM
TGI [32]: 20.1 µM
TGI [33]: 25 µM
TGI [58]: 38 µM
TGI [34]: 17.3 µM
TGI [59]: 18 µM
TGI [35]: 15.2 µM
TGI [36]: 9.82 µM
TGI [37]: 70.2 µM
TGI [38]: 16.5 µM
TGI [39]: 13.6 µM
TGI [40]: 13.7 µM
TGI [41]: 61.1 µM
TGI [43]: 20.7 µM
TGI [44]: 16.2 µM
TGI [45]: 10.1 µM
TGI [56]: 22.2 µM
TGI [46]: 16.9 µM
TGI [47]: 19.4 µM
TGI [48]: 22.1 µM
TGI [49]: 17.8 µM
TGI [50]: 12.7 µM
TGI [51]: 15 µM
TGI [52]: 10.3 µM
TGI [57]: 13.7 µM
TGI [53]: 20.8 µM

Cc1cccc2c(=O)c([Se]c3coc4c(C)cccc4c3=O)coc12
TGI [1]: > 100 µM
TGI [2]: 28.7 µM
TGI [3]: 33.3 µM
TGI [54]: 31.7 µM
TGI [4]: 38.3 µM
TGI [5]: 35.5 µM
TGI [6]: > 100 µM
TGI [7]: > 100 µM
TGI [8]: 34.8 µM
TGI [9]: 44.8 µM
TGI [10]: > 100 µM
TGI [11]: 32.5 µM
TGI [12]: 23.9 µM
TGI [13]: 33.1 µM
TGI [14]: 33.6 µM
TGI [15]: 41.5 µM
TGI [16]: > 100 µM
TGI [17]: 48.4 µM
TGI [55]: 37.9 µM
TGI [18]: 29.8 µM
TGI [19]: 39.1 µM
TGI [20]: 30.3 µM
TGI [21]: 23.8 µM
TGI [22]: 32.7 µM
TGI [23]: 34.7 µM
TGI [24]: 21.3 µM
TGI [25]: 29.2 µM
TGI [26]: 30.4 µM
TGI [27]: > 100 µM
TGI [29]: 69.7 µM
TGI [30]: 61.7 µM
TGI [31]: 33.1 µM
TGI [32]: 36.8 µM
TGI [33]: 30.3 µM
TGI [58]: 41.2 µM
TGI [34]: 31 µM
TGI [59]: 32.2 µM
TGI [35]: 52.6 µM
TGI [36]: 40.5 µM
TGI [37]: 31.5 µM
TGI [38]: 47.4 µM
TGI [39]: 17.8 µM
TGI [40]: 38.5 µM
TGI [41]: 26.5 µM
TGI [42]: 35.2 µM
TGI [43]: 32.9 µM
TGI [44]: 26.8 µM
TGI [45]: > 100 µM
TGI [56]: 79 µM
TGI [46]: 32.2 µM
TGI [47]: 65.6 µM
TGI [48]: 31.3 µM
TGI [49]: 33.5 µM
TGI [50]: 41 µM
TGI [51]: 29.9 µM
TGI [57]: 17.2 µM
TGI [53]: 39.2 µM
